Measured values: article PMC12304826, “Redirecting the Peptide Cleavage Causes Protease Inactivation” (Angewandte Chemie (International Ed. in English), 2025)

Target: T1, human cathepsin B (Homo sapiens, UniProt P07858)
T1 construct: purchased Calbiochem, Darmstadt, Germany
Assay: Cathepsin B reactivation experiment
Type: biochemical
Details: 30 min incubation with 0.5 µM, spin-filter removal of inhibitor, 200 min
Description: Figure S2. Reactivation experiment of human cathepsin B after incubation with the carbamate inhibitors 7 and 31. Cathepsin B (38 µg/mL) was incubated under assay conditions for 30 min with • DMSO, • 5 µM of compound 7, or • 0.5 µM of compound 31. After removal of assay buffer, DMSO and excessive inhibitor by spin-filter centrifugation, product formation was followed in the presence of Cbz-Arg-Arg-pNA as substrate for 200 min. A negative control (•) containing only substrate and no enzyme was used to measure spontaneous decay of the substrate.
(also on this page, place not known: time (min) 0 60 120 180 absorption 0 0.2 0.4 0.6)
(1 picture or pasted object on this page, not shown here)

Q: With `O=C(NC(CC1CCCCC1)C(=O)NC(Cc1ccccc1)C(=O)O)Oc1ccc(NC(=O)C(Cc2ccccc2)Cc2ccccc2)c(Cl)c1` (stereo not shown) [Compound 31] as the molecule, how does the “reversibility of cathepsin B inhibition” value read?
A: irreversible
